Experimental data published in US10421718B2, “EBNA1 inhibitors and their method of use” (priority 2013, dated 2019).
pIC50: −log10 of the molar value.

The molecules below were run against T1, His-EBNA1 (DNA binding domain of EBNA1, amino acids 459-607) (Epstein-Barr virus, UniProt P03211) (assay: Inhibition of 5′-biotin-oPL4624 binding to His-EBNA1 using Alpha Screen technology). Settings: Alpha Screen Activity (IC50, inhibition of 5′-biotin-oPL4624 binding to His-EBNA1), 15 nM His-EBNA1, 0.2 nM bt-oPL4624, 2 hr room temperature.
T1 construct: made in house; host or cells: E. coli
Procedure, shortened: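 AlphaScreen signal (680 nm ex, 570 nm em) after a 2-h room-temperature incubation, normalized to no-EBNA1 (100% inhibition) and EBNA1 (0%) values and fit to a one-site curve. Final conditions: 15 nM His-EBNA1 (aa 459-607), 0.2 nM bt-oPL4624, Tris pH 7.2 buffer with 160 mM NaCl, compound 3.2 nM to 100 μM.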

T1 sequence (P03211 459-607): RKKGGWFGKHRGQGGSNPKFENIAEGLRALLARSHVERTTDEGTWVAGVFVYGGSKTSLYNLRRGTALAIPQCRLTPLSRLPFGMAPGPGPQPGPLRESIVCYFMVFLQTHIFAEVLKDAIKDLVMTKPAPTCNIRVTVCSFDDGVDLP

`Cn1ccc2cc(-c3c(C#Cc4ccccc4)cccc3C(=O)O)ccc21` [Entry 133, 2-(1-methyl-1H-indol-5-yl)-3-(2-phenylethynyl)benzoic acid] and `Cn1ccc2ccc(-c3c(C#Cc4ccccc4)cccc3C(=O)O)cc21` [Entry 136, 2-(1-methyl-1H-indol-6-yl)-3-(2-phenylethynyl)benzoic acid] fall in the same range of pIC50: 5.00 to 6.00 for the first, 5.00 to 6.00 for the second.

Compared with `CS(=O)(=O)Nc1cccc(-c2c(C#Cc3ccccc3)cccc2C(=O)O)c1` [Entry 134, 2-(3-methanesulfonamidophenyl)-3-(2-phenylethynyl)benzoic acid], `Cn1ncc2ccc(-c3c(C#Cc4ccccc4)cccc3C(=O)O)cc21` [Entry 139, 2-(1-methyl-1H-indazol-6-yl)-3-(2-phenylethynyl)benzoic acid] is lower in pIC50: 5.00 to 6.00 for the first, 4.00 to 5.00 for the second. The first is the more potent here.

Compared with `O=C(O)c1cccc(C#Cc2ccccc2)c1-c1ccc2ccccc2c1` [Entry 135, 2-(naphthalen-2-yl)-3-(2-phenylethynyl)benzoic acid], `O=C(O)c1cccc(C#Cc2ccccc2)c1-c1ccc2nc[nH]c2c1` [Entry 150, 2-(1H-1,3-benzodiazol-6-yl)-3-(2-phenylethynyl)benzoic acid] is lower in pIC50: 5.00 to 6.00 for the first, 4.00 to 5.00 for the second.

`O=C(O)c1cccc(C#Cc2ccccc2)c1-c1ccccc1S(=O)(=O)NCCO` [Entry 137, 2-{2-[(2-hydroxyethyl)sulfamoyl]phenyl}-3-(2-phenylethynyl)benzoic acid] and `O=C(O)c1cccc(C#Cc2ccccc2)c1OCc1ccccc1` [Entry 155, 2-(benzyloxy)-3-(2-phenylethynyl)benzoic acid] fall in the same range of pIC50: 4.00 to 5.00 for the first, 4.00 to 5.00 for the second.

First: O=C(NC1CC1)c1ccc(-c2c(C#Cc3ccccc3)cccc2C(=O)O)cc1 [Entry 138, 2-[4-(cyclopropylcarbamoyl)phenyl]-3-(2-phenylethynyl)benzoic acid]
Second: COC(=O)c1c[nH]c2cc(-c3c(C#Cc4ccccc4)cccc3C(=O)O)ccc12 [Entry 156, 2-[3-(methoxycarbonyl)-1H-indol-6-yl]-3-(2-phenylethynyl)benzoic acid]
The pIC50 of the first is lower: 4.00 to 5.00 for the first, 5.00 to 6.00 for the second.

First: O=C(O)c1cccc(C#Cc2cccc(O)c2)c1-c1cnc2ccccc2c1 [Entry 140, 3-((3-hydroxyphenyl)ethynyl)-2-(quinolin-3-yl)benzoic acid]
Second: COc1ccc(C#Cc2cccc(C(=O)O)c2-c2cnc3ccccc3c2)cc1 [Entry 142, 3-((4-methoxyphenyl)ethynyl)-2-(quinolin-3-yl)benzoic acid]
The pIC50 of the first is higher: 5.00 to 6.00 for the first, 4.00 to 5.00 for the second. The first is the more potent here.

First: O=C(O)c1cccc(C#CCCCO)c1-c1cnc2ccccc2c1 [Entry 141, 3-(5-hydroxypent-1-ynyl)-2-(quinolin-3-yl)benzoic acid]
Second: O=C(O)c1cccc(C#CCO)c1-c1ccccc1 [Entry 161, 3-(3-hydroxyprop-1-yn-1-yl)-2-phenylbenzoic acid]
The pIC50 of the first is higher: 4.00 to 5.00 for the first, 3.00 to 4.00 for the second.

First: O=C(O)c1cccc(C#Cc2cnc3cnccn23)c1-c1cnc2ccccc2c1 [Entry 143, 3-(imidazo[1,2-a]pyrazin-3-ylethynyl)-2-(quinolin-3-yl)benzoic acid]
Second: Cn1ncc2ccc(-c3c(C#Cc4c[nH]c5ncccc45)cccc3C(=O)O)cc21 [Entry 167, 2-(1-methyl-1H-indazol-6-yl)-3-(2-{1H-pyrrolo[2,3-b]pyridin-3-yl}ethynyl)benzoic acid]
The pIC50 of the first is higher: 5.00 to 6.00 for the first, 4.00 to 5.00 for the second.

First: COC/C=C/c1cccc(C(=O)O)c1-n1cccc1 [Entry 144, 3-[(1E)-3-methoxyprop-1-en-1-yl]-2-(1H-pyrrol-1-yl)benzoic acid]
Second: O=C(O)c1cccc(/C=C/c2ccccc2)c1-n1cccc1 [Entry 145, 3-[(E)-2-phenylethenyl]-2-(1H-pyrrol-1-yl)benzoic acid]
The pIC50 of the first is higher: 5.00 to 6.00 for the first, 4.00 to 5.00 for the second.

`O=C(O)c1cccc(/C=C/c2ccc(F)cc2)c1-n1cccc1` [Entry 146, 3-[(E)-2-(4-fluorophenyl)ethenyl]-2-(1H-pyrrol-1-yl)benzoic acid] and `O=C(O)c1cccc(CCc2ccc(F)cc2)c1-n1cccc1` [Entry 149, 3-[2-(4-fluorophenyl)ethyl]-2-(1H-pyrrol-1-yl)benzoic acid] fall in the same range of pIC50: 4.00 to 5.00 for the first, 4.00 to 5.00 for the second.

`O=C(O)c1cccc(CCc2ccccc2)c1-n1cccc1` [Entry 147, 3-(2-phenylethyl)-2-(1H-pyrrol-1-yl)benzoic acid] and `O=C(O)c1cccc(CCc2ccccc2)c1N1CCCC1` [Entry 148, 3-(2-phenylethyl)-2-(pyrrolidin-1-yl)benzoic acid] fall in the same range of pIC50: 4.00 to 5.00 for the first, 4.00 to 5.00 for the second.

Compared with `NS(=O)(=O)c1cccc(C#Cc2ccccc2)c1-n1cccc1` [Entry 152, 3-Phenylethynyl-2-pyrrol-1-yl-benzenesulfonamide], `CC(=O)NS(=O)(=O)c1cccc(C#Cc2ccccc2)c1-n1cccc1` [Entry 153, N-Acetyl-3-phenylethynyl-2-pyrrol-1-yl-benzenesulfonamide] is lower in pIC50: 5.00 to 6.00 for the first, 4.00 to 5.00 for the second.

First: Cc1noc(C)c1-c1c(C#Cc2ccccc2)cccc1C(=O)O [Entry 154, 2-(dimethyl-1,2-oxazol-4-yl)-3-(2-phenylethynyl)benzoic acid]
Second: O=C(O)c1cccc(C#CCNCc2ccccc2)c1-c1ccccc1 [Entry 157, 3-[3-(benzylamino)prop-1-yn-1-yl]-2-phenylbenzoic acid]
The pIC50 of the first is higher: 5.00 to 6.00 for the first, 4.00 to 5.00 for the second. The first is the more potent here.

`O=C(O)c1cccc(C#CCNCCCn2ccnc2)c1-c1ccccc1` [Entry 158, 3-(3-{[3-(1H-imidazol-1-yl)propyl]amino}prop-1-yn-1-yl)-2-phenylbenzoic acid] and `O=C(O)c1cccc(C#CCN2CCCC2)c1-c1ccccc1` [Entry 160, 2-phenyl-3-[3-(pyrrolidin-1-yl)prop-1-yn-1-yl]benzoic acid] fall in the same range of pIC50: 4.00 to 5.00 for the first, 4.00 to 5.00 for the second.

`O=C(O)c1cccc(C#CCN2CCN(c3ccccc3)CC2)c1-c1ccccc1` [Entry 159, 2-phenyl-3-[3-(4-phenylpiperazin-1-yl)prop-1-yn-1-yl]benzoic acid] and `COc1cccc(-c2c(C#Cc3c[nH]c4ncccc34)cccc2C(=O)O)c1` [Entry 166, 2-(3-methoxyphenyl)-3-(2-{1H-pyrrolo[2,3-b]pyridin-3-yl}ethynyl)benzoic acid] fall in the same range of pIC50: 4.00 to 5.00 for the first, 4.00 to 5.00 for the second.

First: NCc1cccc(C#Cc2cccc(C(=O)O)c2-n2cccc2)c1 [Entry 162, 3-{2-[3-(Aminomethyl)phenyl]ethynyl}-2-(1H-pyrrol-1-yl)benzoic acid]
Second: O=C(O)c1cccc(C#Cc2cccc(CNS(=O)(=O)C3CC3)c2)c1-n1cccc1 [Entry 165, 3-{2-[3-(cyclopropanesulfonamidomethyl)phenyl]ethynyl}-2-(1H-pyrrol-1-yl)benzoic acid]
The pIC50 of the first is lower: 5.00 to 6.00 for the first, greater than 6.00 for the second. The second is the more potent here.

`O=C(O)c1cccc(C#Cc2cccc(CNS(=O)(=O)c3cc(F)cc(F)c3)c2)c1-n1cccc1` [Entry 163, 3-{2-[3-(3,5-difluorobenzenesulfonamidomethyl)phenyl]ethynyl}-2-(1H-pyrrol-1-yl)benzoic acid] and `Cc1ncc(S(=O)(=O)NCc2ccc(C#Cc3cccc(C(=O)O)c3-n3cccc3)cc2)n1C` [Entry 164] fall in the same range of pIC50: 5.00 to 6.00 for the first, 5.00 to 6.00 for the second.

First: Cc1nc2cc(-c3c(C#Cc4c[nH]c5ncccc45)cccc3C(=O)O)ccc2s1 [Entry 168, 2-(2-methyl-1,3-benzothiazol-5-yl)-3-(2-{1H-pyrrolo[2,3-b]pyridin-3-yl}ethynyl)benzoic acid]
Second: Cn1ccc2cc(-c3c(C#Cc4cscn4)cccc3C(=O)O)ccc21 [Entry 171]
The pIC50 of the first is lower: 4.00 to 5.00 for the first, 5.00 to 6.00 for the second. The second is the more potent here.

First: Cn1ncc2ccc(-c3c(C#Cc4cscn4)cccc3C(=O)O)cc21 [Entry 170]
Second: O=C(O)c1cccc(C#Cc2cscn2)c1-c1ccncc1 [Entry 172]
The pIC50 of the first is higher: 5.00 to 6.00 for the first, 4.00 to 5.00 for the second. The first is the more potent here.
